Measurements from US6291496A, “Treating cancers associated with overexpression of class I family of receptor tyrosine kinases” (priority 1999, dated 2001).
≈ marks a conversion by molar mass, not a printed value.

Columns and labels:
[1] = target: human PPARγ binding domain; conditions: scintillation proximity assay, radioligand [3H]BRL 49653; values reported in Henke et al, Collins et al, Cobb et al; cited from earlier work
[2] = test system: non-small cell lung carcinoma where EGFR is overexpressed; test: Example VI: non-small cell lung carcinoma metastasized to liver; type: in vivo, human; conditions: patient, oral 5 mg/kg twice daily
Method: After one month, PPARγ ligand administration is continued in combination with infusion of cisplatin every four weeks at 60 mg/m^2 for 12 more weeks.

[3] = test system: EGFR positive breast cancer; test: Example IX: adjuvant therapy after mastectomy; type: in vivo, human; conditions: patient, oral 5 mg/kg twice daily for five years after mastectomy
[4] = test system: HER-2/neu positive breast cancer metastasized to bone; test: Example IV: breast cancer metastasized to bone; type: in vivo, human; conditions: patient after failure of prior chemotherapy, oral 5 mg/kg twice daily plus HERCEPTIN
Method: After 90 days, oral cyclophosphamide at a dose of 3 mg/kg/day and doxorubicin administered intravenously weekly at a dose of 20 mg/m^2, are added to the drug regimen.

[5] = test system: HER-2/neu positive breast cancer metastasized to lung and liver; test: Example III: breast cancer metastasized to lung and liver; type: in vivo, human; conditions: patient, oral 5 mg/kg twice daily
Method: After three months, the PPARγ ligand administration is continued in combination regimen with Taxol® at a dose of 175 mg/m^2 administered intravenously every three weeks.

[6] = test system: HER-2/neu positive breast cancer; test: Example I: adjuvant therapy after mastectomy; type: in vivo, human; conditions: patient, oral 5 mg/kg twice per day for five years after mastectomy
[7] = test system: head and neck carcinoma where EGFR is overexpressed; test: Example VII: head and neck carcinoma; type: in vivo, human; conditions: after the 12 weeks of CETUXIMAB and cisplatin, oral 5 mg/kg twice daily for 12 weeks
Method: Concurrently cisplatin is infused every four weeks at 60 mg/m^2.

[8] = test system: HER-2/neu positive breast cancer; test: Example II: adjuvant therapy with PPARγ ligand and HERCEPTIN; type: in vivo, human; conditions: patient, oral 5 mg/kg twice daily for one year, with HERCEPTIN 250 mg IV loading then 10 weekly doses of 125 mg
[9] = test system: Stage IV EGFR positive breast cancer tumors; test: Example VIII: breast cancer with Stage IV EGFR positive tumors; type: in vivo, human; conditions: oral 5 mg/kg twice daily in combination with CETUXIMAB and Taxol
[10] = test system: HER-2/neu positive colon cancer; test: Example V: after resection of colon cancer; type: in vivo, human; conditions: patient, oral 5 mg/kg twice daily for five years after resection
[11] = test system: HER-2/neu in 184B5/HER cells; test: immunoblot for HER-2/neu in 184B5/HER cells; type: cell-based, human; conditions: 25 μM ciglitazone or 20 μM 15-d-PGJ2, 24 hours
Source text: The 184B5/HER cell line was obtained from a collaborator and was derived by stably transfecting 184B5 cells with a mutationally activated HER-2/neu oncogene; these cells form rapidly growing tumors when injected into athymic nude mice. The 184B5/HER cell line is described in Pierce, J. H., et al., Oncogene 6, 1189-1194 (1991). The BT-474 cell line is a human breast cancer adenocarcinoma cell line which overexpresses HER-2/neu, and was obtained from the American Type Culture Collection (Manassas, Va.) and bears accession number ATCC HBT-20.
184B5/HER cells were maintained in MEM-KBM mixed in a ratio of 1:1 (basal medium) containing epidermal growth factor (10 ng/ml), hydrocortisone (0.5 μg/ml), transferrin (10 μg/ml), gentamicin (5 μg/ml) and insulin (10 μg/ml) (growth medium). […] cells were grown to 60% confluence, trypsinized with 0.05% trypsin-2 mM ethylenediaminotetraacetic acid, and plated for experimental use. […]
184B5/HER cells were treated with vehicle (0.01% dimethylsulfoxide), 25 μM ciglitazone (Biomol, Plymouth Meeting, Pennsylvania) or 20 μM 15-d-PGJ2 (Biomol, Plymouth Meeting, Pennsylvania) for 24 hours. […] The protein concentration of the supernatant was measured by the method of Lowry, O. H., et al, J. Biol. Chem. 193, 265-275 (1951). […]

[12] = test system: HER-2/neu mRNA; test: Northern blotting for HER-2/neu mRNA in 184B5/HER cells; type: cell-based, human; conditions: 25 μM ciglitazone or 20 μM 15-d-PGJ2
Method: Northern blotting was performed to evaluate whether PPARγ ligands decrease levels of HER-2/neu mRNA. 184B5/HER cells were treated with vehicle (0.01% dimethyl sulfoxide), 25 μM ciglitazone or 20 μM 15-d-PGJ2. Total cellular RNA was isolated from cell monolayers using an RNA isolation kit from Qiagen Inc. 10 μg of RNA was added to each lane. The 10 μg of total cellular RNA per lane were electrophoresed in a formaldehyde-containing 1.2% agarose gel and transferred to nylon-supported membranes. The blot was hybridized with probes that recognized HER-2/neu mRNA (Santa Cruz Biotechnology, Inc., Santa Cruz, Calif.) and 18S rRNA cDNA (Ambion, Inc., Austin, Tex.).

[13] = test system: HER-2/neu promoter; test: transient transfection assay, human HER-2/neu promoter construct ligated to luciferase, 184B5/HER cells; type: cell-based; conditions: 0-25 μM, 24 hours, FIG. 1
Method: To determine whether PPARγ ligands inhibit HER-2/neu promoter activity, a transient transfection assay was performed. 184B5/HER cells were transfected with 1.8 μg of a human HER-21neu promoter construct ligated to luciferase (-1571/--24) and 0.2 μg pSVβgal (Promega Corp., Madison Wis.). The HER-2/neu promoter (-1571/--24) is described in Hudson, L. G. et al, J. Biol. Chem. 265, 4389-4393 (3/90), the whole of which is incorporated herein by reference. The promoter constructs are described in Hudson, L. G., et al, Cell 62, 1165-1175(1990). 184B5/HER cells were seeded at a density of5×10^4 cells well in 6-well dishes and grown to 50-60% confluence. For each well, 2 μg of […] DNA were introduced into cells using 8 μg of LIPOFECTAMINE (Life Technologies, Inc., Grand Island, N.Y.) as per the manufacturer's instructions. Following transfection, the cells were treated with ciglitazone (0, 5, 10, 15, 20 and 25 μM) or 15d-PGJ2 (0, 5, 10, 15, 20 and 25 μM) for 24 hours.
The activities of luciferase and β-galactosidase were measured in cellular extract as described in Mestre, J. R. et al, Cancer Res. 57, 1081-1085 (1997).

[14] = test system: EGFR in 184B5 mammary epithelial cells; test: immunoblot for EGFR in 184B5 cells; type: cell-based, human; conditions: ciglitazone 5-30 μM or 15-d-PGJ2 5, 10 μM, 24 hours
Method: The cells used were 184B5 cells. The 184B5 cell line was obtained from a collaborator and is an immortalized but non-tumorigenic human breast epithelial cell line that was established from a reduction mammaplasty and is described in Stampler, M. R, et al, Proc. Natl. Acad. Sci. USA 82, 2394-2398 (1985).
184B5 cells were maintained in MEM-KBM mixed in a ratio of 1:1 (basal medium) containing epidermal growth factor (10 ng/ml), hydrocortisone (0.5 μg/ml), transferrin (10 μg/ml), gentamicin (5 μg/ml), and insulin (10 μg/ml) (growth medium). 184B5 cells were grown to 60% confluence, trypsinized with 0.05% trypsin-2 mM ethylenediaminotetraacetic acid and plated for experimental use.
184B5 cells were treated with vehicle (0.01% dimethyl sulfoxide), ciglitazone (5, 10, 20, 30 μM) or 15-d-PGJ2 (5, 10 μM) for 24 hours. Cell lysates were prepared in RIPA buffer. Lysates were sonicated for 20 seconds on ice and centrifuged at 10,000×g for 10 minutes to sediment the particulate material. The protein concentration of the supernatant was measured by the method of Lowry,. O. H., et al, J. Biol. Chem. 193, 265-275 (1951). Cellular lysate protein (100 μg/lane) was loaded onto a 10% SDS-polyacrylamide gel, electrophoresed and subsequently transferred onto a nitrocellulose membrane(Schleicher & Schuell Keene, N. H.). […]

[15] = test system: EGFR promoter; test: transient transfection assay, human EGFR promoter construct ligated to luciferase, 184B5 cells; type: cell-based; conditions: 0-25 μM, 24 hours, FIG. 2
Method: To determine whether PPARγ ligands inhibit EGFR promoter activity, a transient transfection assay was performed, 184B5 cells were transfected with 1.8 μg of a human EGFR promoter construct ligated luciferase (-1100/-19) and 0.2 μg pSVβgal (Promega Corp., Madison, Wis.). The EGFR promoter is described in Hudson, L. G., et al, Cell 62, 1165-1175 (1990), the whole of which is incorporated herein by reference. 184B5 cells were seeded at a density of 5×10^4 cells/well in 6-well dishes and grown to 50-60% confluence. For each well 2 μg of […] DNA were introduced into cells using 8 μg of LIPOFECTAMINE (Life Technologies, Inc., Grand Island, N.Y.) as per the manufacturers instructions. Following transfection, the cells were treated with ciglitazone (0, 5, 10, 15, 20 and 25 μM) or 15-d-PGJ2 (0, 5, 10, 15, 20, and 25 μM) for 24 hours. The activities of luciferase and β-galactosidase were measured in cellular extract as described in Mestre, J. R, et al, Cancer Res. 57, 1081-1085 (1997). The results are shown in FIG. 2 where luciferase activity represents data that have been normalized to β-galactosidase activity (columns, means; bars, S. D., n=6; * means p<0.01 compared to control).

[16] = physchem; conditions: ph 7.4 buffer, pH 7.4, aqueous buffer

Row | Structure (SMILES) | pKi in binding assay using the human PPARγ binding domain [1] | tumor burden [2] | tumor burden [4] | recurrence of breast cancer [6] | tumor burden [7] | recurrence of breast cancer [8] | also measured
1 | Cc1oc(-c2ccccc2)nc1CCOc1ccc(C[C@H](Nc2ccccc2C(=O)OC(C)C)C(=O)O)cc1 [#66] | 9.01±0.00 |  |  |  |  |  | 
2 | CN(CCOc1ccc(CC2SC(=O)NC2=O)cc1)c1ccccn1 (stereo not drawn) [rosiglitazone] | 7.33±0.02 | reduced tumor burden | reduced tumor burden | Recurrence of breast cancer does not occur | further reduced tumor burden | Recurrence of breast cancer does not occur | recurrence of breast cancer [3]: Recurrence of breast cancer dose not occur; tumor burden [5]: reduced tumor burden; tumor burden [9]: reduced tumor burden; recurrence of colon cancer [10]: Recurrence of colon cancer does not occur
3 | CCOC(=O)c1ccccc1N[C@@H](Cc1ccc(OCCc2nc(-c3ccccc3)oc2C)cc1)C(=O)O [#64] | 8.52±0.03 |  |  |  |  |  | 
4 | CCCCC/C=C/C=C1/C(=O)C=C[C@@H]1C/C=C\CCCC(=O)O [15-d-PGJ2, 15-deoxy-Δ12, 14-prostaglandin J2] |  |  |  |  |  |  | amount of HER-2/neu (immunoblot) [11]: decreased the amount of HER-2/neu; amounts of HER-2/neu mRNA (Northern blot) [12]: decrease amounts of HER-2/neu mRNA; HER-2/neu promoter activity (luciferase normalized to β-galactosidase) [13]: inhibited HER-2 neu promoter activity in a dose-dependent fashion; amounts of EGFR (immunoblot) [14]: decreased amounts of EGFR; EGFR promoter activity (luciferase normalized to β-galactosidase) [15]: inhibited EGFR promoter activity in a dose-dependent fashion
5 | CN(CCOc1ccc(C[C@H](Nc2ccccc2C(=O)c2ccccc2)C(=O)O)cc1)c1nc2ccccc2o1 [structure (II), 3-{4-[2-benzoxazol-2-ylmethylamino)ethoxy](phenyl}-(2S)-((2-benzoylphenyl)amino)propionic acid] | 8.83±0.05 | reduced tumor burden | reduced tumor burden | recurrence of breast cancer does not occur | further reduced tumor burden | Recurrence of breast cancer does not occur | recurrence of breast cancer [3]: Recurrence of breast cancer dose not occur; tumor burden [5]: reduced tumor burden; recurrence of colon cancer [10]: Recurrence of colon cancer does not occur
6 | COC(=O)c1ccccc1N[C@@H](Cc1ccc(OCCc2nc(-c3ccccc3)oc2C)cc1)C(=O)O [GW7845, (S)-2-(1-carboxy-2-{4-[2-(5-methyl-2-phenyloxazol-4-yl)ethoxy]phenyl}ethylamino)benzoic acid methyl ester] |  | reduced tumor burden | reduced tumor burden | recurrence of breast cancer does not occur | further reduced tumor burden | Recurrence of breast cancer does not occur | solubility [16]: 300 µg/mL (≈ 599 µM)
7 | CCCOC(=O)c1ccccc1N[C@@H](Cc1ccc(OCCc2nc(-c3ccccc3)oc2C)cc1)C(=O)O [#65] | 8.62±0.03 |  |  |  |  |  | 
